Drawing on patent US20110009399A1, “ORGANIC COMPOUNDS” (priority 2007, published 2011), this text covers IC50 for 3 molecules.

Structures are written as SMILES.

For this assay, the target named is T1, renin (Homo sapiens, UniProt P00797).
T1 construct: This test measures the formation of angiotensin I in human plasma; from tissue; host or cells: human plasma
T1 sequence (P00797 67-406): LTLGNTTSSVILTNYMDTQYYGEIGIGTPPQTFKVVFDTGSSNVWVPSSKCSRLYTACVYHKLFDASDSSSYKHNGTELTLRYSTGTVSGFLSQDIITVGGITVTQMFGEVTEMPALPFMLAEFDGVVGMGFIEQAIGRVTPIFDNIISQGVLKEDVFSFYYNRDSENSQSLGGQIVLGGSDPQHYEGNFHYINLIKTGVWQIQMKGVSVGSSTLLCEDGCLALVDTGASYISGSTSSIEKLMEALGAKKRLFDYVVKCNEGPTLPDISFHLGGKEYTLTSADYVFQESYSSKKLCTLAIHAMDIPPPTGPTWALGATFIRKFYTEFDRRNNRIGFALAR
The assay is described as follows: in vitro test of Nussberger et al.: formation of angiotensin I in human plasma, radioimmunoassay. It counts as biochemical. The settings on record: values given as 'in the range of about', read-out: IC50, inhibition of the formation of angiotensin I. The protocol:
The effect of renin inhibitors is detected inter alia experimentally by means of in vitro tests where the reduction in the formation of angiotensin I is measured in various systems (human plasma, purified human renin together with synthetic or natural renin substrate). The following in vitro test of Nussberger et al. (1987) J. Cardiovascular Pharmacol., Vol. 9, pp. 39-44, is used inter alia. This test measures the formation of angiotensin I in human plasma. The amount of angiotensin I formed is determined in a subsequent radioimmunoassay. The effect of inhibitors on the formation of angiotensin I is tested in this system by adding various concentrations of these substances. […] The compounds of the present invention show inhibitory effects in the in vitro systems at minimal concentrations of about 10^−6 to about 10^−10 mol/l.
For orientation: IC50 means the midpoint of a concentration-inhibition curve. For `CCOC(C)COCc1ccc2c(c1)OCCOC21CCNCC1OCc1ccc2c(c1)N(CCCOC)CCO2` [Example 14, (3′S,5S)-8-({[(2R)-2-Ethoxypropyl]oxy}methyl)-3′-{[4-(3-methoxypropyl)-3,4-dihydro-2H-1,4-benzoxazin-6-yl]methoxy}-2,3-dihydrospiro[1,4-benzo-dioxepine-5,4′-piperidine]], the IC50 lay within 1 to 20 nM. Then `CCO[C@H](C)COCc1ccc2c(c1)CCO[C@@]21CCNC[C@@H]1OCc1ccc2c(c1)N(CCCOC)CCO2` [Example 2, (1S,3′S)-6-({[(2R)-2-Ethoxypropyl]oxy}methyl)-3′-{[4-(3-methoxypropyl)-3,4-dihydro-2H-1,4-benzoxazin-6-yl]methoxy}-3,4-dihydrospiro[isochromene-1,4′-piperidine]], with 1 to 20 nM. Then `COCCCN1CCOc2ccc(CO[C@H]3CNCC[C@@]34OCc3cc(COC[C@@H](C)COC)ccc34)cc21` [Example 7, (1S,3′S)-5-({[(2S)-3-methoxy-2-methylpropyl]oxy}methyl)-3′-{[4-(3-methoxy-propyl)-3,4-dihydro-2H-1,4-benzoxazin-6-yl]methoxy}-3H-spiro[2-benzofuran-1,4′-piperidine]], with 1 to 20 nM.
